Assay results taken from US20080070898A1, “Piperidine Derivative or Pharmaceutically Acceptable Salt Thereof” (priority 2004, published 2008).
Structures can show the parent of a compound that is named as a salt.

Tests used:
sodium channel = assay: [14C] guanidine uptake test (sodium channel inhibition test), veratridine-induced uptake into rat cerebral cortex primary neurons; assay type: cell-based; conditions: 100 μM veratridine, 25° C., 15 minutes, specific uptake defined by 1 mM mexiletine
Procedure: (Sodium Channel Inhibition Test)
The [^14C] guanidine uptake test was conducted by modifying the method of Bonisch et al. (British Journal of Pharmacology 108, 436-442, 1993). The [^14C] guanidine was used as a sodium tracer, and the inhibitory activity on uptake of [^14C] guanidine induced by veratridine as a sodium channel activator into rat cerebral cortex primary neurons was measured.
a. Preparation of Rat Cerebral Cortex Primary Neuron Culture System.
A pregnant rat (Wistar, female, pregnancy=19 days old) was anesthetized with diethyl ether and killed by bleeding with the cutting of the carotid artery. Fetuses were excised from the pregnant rat and sterilized with ethanol for disinfection. Then, from the fetuses was dissociated the cerebral cortex. The cerebral cortex was digested with papain and dispersed in a culture medium. Then, the dissociated neurons were placed in a 96-well white plate coated with a poly-L-lysine, at a density of […], and cultured for 2 days in a CO2 incubator (37° C., 5% CO2)
b. Evaluation of Test Compounds
Each well was washed once with an assay buffer (135 mM choline Cl, 5 mM KCl, 1 mM MgSO4, 5.5 mM glucose, 1 mg/mL BSA, 10 mM Hepes-Tris, pH 7.4). The assay buffer was added to each well and incubated at 25° C. for 10 minutes. Then, the assay buffer was replaced by a reaction solution (test compound, [^14C] guanidine and 100 μM veratridine) and incubated at 25° C. for 15 minutes. The reaction was terminated by three times washing with a cold-washing buffer (135 mM NaCl, 5 mM KCl, 1 mM MgSO4, 10 mM Hepes-Tris, pH 7.4). To each well was added 17 μL of 0.1 N NaOH; stirring was made; then, 100 μL of a scintillator was added; and the radioactivity of each well was measured using a liquid scintillator counter. In each test, the uptake amount of [^14C] guanidine inhibited by 1 mM of mexiletine was taken as the portion of the specific uptake via sodium channel. The activity of test compound on sodium channel is expressed by 50% inhibitory concentration (IC50) for the specific uptake.

[1] = tested on: streptozotocin (STZ)-induced diabetic mice; assay: Analgesic action on diabetic neuropathy in streptozotocin-induced diabetic mice (tail pinch test); assay type: in vivo; conditions: orally 30 mg/kg, 45 minutes prior to measurement, Day 15 after STZ injection, ICR mice
Procedure: (Analgesic Action on Diabetic Neuropathy in Streptozotocin-Induced Diabetic Mice)
Representative compounds of Compound (I) of the present invention were assessed for the analgesic action on diabetic neuropathy in streptozotocin (STZ)-induced diabetic mice to confirm the effect on neuropathic pain. The assessment was performed by the method of Kamei et al. (Pharmacology Biochemistry & Behavior 39, 541-544, 1991) with some modifications.
Male ICR mice of 4 weeks old were intraperitoneally injected with 200 mg/kg weight of STZ to prepare mice with diabetic neuropathy. The analgesic action was assessed by the tail pinch test. […] On Day 14 following the STZ injection, a pretest was carried out to determine the response latency before the administration of a test compound. Only the animals showing not longer than 3 seconds of the response latency in the pretest were used for the test compound assessment on the following day (Day 15 after STZ injection). In the test compound assessment, the response latency after the administration of a test compound was measured. The test compound was orally administered at a dose of 30 mg/kg, 45 minutes prior to the response latency measurement. The analgesic action of a test compound is expressed as prolongation of latency (in seconds) calculated by the formula: (response latency after administration of a test compound)−(response latency before administration of a test compound).

[2] = tested on: L5/L6 spinal nerve ligation rats; assay: animal or person; conditions: Rattus norvegicus, po, read-out: ED50 (anti-allodynia action potency)
Procedure: (Anti-Allodynia Effect in Rats with L5/L6 Spinal Nerve Ligation)
The assessment was performed by the method of Kim and Chung (Pain 50, 355-363, 1992) with some modifications. Under pentobarbital anesthesia, male SD rats of 5 or 6 weeks old were given surgery to ligate both the left L5 and L6 lumbar spinal nerves tightly with silk threads. For the assessment of analgesic action, the von Frey hair test was adopted. That is, the animal's hindpaw was picked with hair and the lowest strength of hair for limb withdrawal response was designated as a response threshold (log gram) to mechanical stimulation. […] On the day before the assessment of a test compound, the response threshold before administration of a test compound was measured. The animals were divided into 4 to 5 groups so that differences in the mean values of response thresholds before administration among the groups and variation within groups become small. In the assessment of a test compound, the response threshold after administration of the test compound was measured. The test compound was orally given 30 minutes before measurement of the response threshold. The anti-allodynia action potency of a test compound is expressed as ED50. In the calculation of the ED50, the thresholds of ipsilateral and contralateral paws in the solvent group were designated as 0% and 100%, respectively.

Structure (SMILES)	IC50 (sodium channel) [µM]	Increase in latent time (prolongation of latency, tail pinch) [1] [s]	ED50 [2] [mg/kg]
O=C(CN1CCOCC1)N1CCC(/C=C/c2ccccc2Cl)CC1 [Example 1, 4-(2-{4-[(E)-2-(2-chlorophenyl)vinyl]piperidin-1-yl}-2-oxoethyl)morpholine oxalate]	27		
Cc1ccccc1/C=C/C1CCN(C(=O)CN2CCOCC2)CC1 [Example 3, 4-(2-{4-[(E)-2-(2-methylphenyl)vinyl]piperidin-1-yl}-2-oxoethyl)morpholine]		2.3	
CC(C)Oc1ccccc1/C=C/C1CCN(C(=O)CN2CCOCC2)CC1 [Example 10]	16		
CC(C)c1ccc(/C=C/C2CCN(C(=O)CN3CCOCC3)CC2)cc1 [Example 26, 4-(2-{4-[(E)-2-(4-isopropylphenyl)vinyl]piperidin-1-yl}-2-oxoethyl)morpholine]	25	2.3	
O=C(CN1CCOCC1)N1CCC(/C=C/c2ccc(Cl)cc2)CC1 [Example 40, 4-(2-{4-[(E)-2-(4-chlorophenyl)vinyl]piperidin-1-yl}-2-oxoethyl)morpholine]	23	3.4	
O=C(CN1CCOCC1)N1CCC(/C=C\c2ccc(Cl)cc2)CC1 [Example 52]	24		
O=C(CN1CCCOCC1)N1CCC(/C=C/c2ccc(Cl)cc2)CC1 [Example 65]	12		
O=C(CN1CCNCC1)N1CCC(/C=C/c2cccc(Cl)c2)CC1 [Example 68, 1-(2-{4-[(E)-2-(3-chlorophenyl)vinyl]piperidin-1-yl}-2-oxoethyl)piperazine di-hydrochloride]	25		
O=C(C1CCCN1)N1CCC(/C=C/c2ccc(Cl)cc2)CC1 (centres unmarked) [Example 74]	13		
O=C(CNC1CCCCC1)N1CCC(/C=C/c2ccc(Cl)cc2)CC1 [Example 76, N-2-{4-[(E)-2-(4-chlorophenyl)vinyl]piperidin-1-yl}-2-oxoethyl)cyclohexaneamine oxalate]	3.4	3.2	
CN(CC(=O)N1CCC(/C=C/c2ccc(Cl)cc2)CC1)C1CCCCC1 [Example 78, N-2-{4-[(E)-2-(4-chlorophenyl)vinyl]piperidin-1-yl}-2-oxoethyl)-N-methylcyclohexaneamine oxalate]	3.1	2.4	
Cc1cccc(C)c1OCC(C)N (centres unmarked) [mexiletine, reference compound]	~70		~70
